For test [1], the target named is T1, MYCbHLHZip (Homo sapiens, UniProt P01106).
T1 construct: An amino coupling procedure was used to immobilize MYCbHLHZip protein on a CM5 sensor chip
Description: Assay 2A MYC binding MST assay. The note with it: approximately 200 nM labelled MYC, compound titrated. The procedure:
FIG. 2: A) MST assay of Example 1 effect on MYC and MAX, respectively. Recombinant MYC bHLHZip and MAX bHLHZip proteins were titrated, respectively, in a fixed concentration (3 μM) of Example 1. Changes in fluorescence were measured and normalized to control (buffer). Data are shown as mean±standard deviation of 6-8 biological repeats. B) MST assay of MYC (reverse MST). A fixed concentration of 200 nM labeled MYC was mixed with different concentrations of Example 1 as indicated. Data are shown as mean±standard deviation of 5 biological repeats. C) MST assay of Example 2 effect on MYC. D) MST assay of MYC with a control compound (non-binder).
Assay 2A. MYC Binding MST Assay
The MYC MST assay was performed as described above (Biological example 1—Assay 1A), except that the fluorescent molecule was either protein or Example 1. The example compound was kept at a fix concentration of 3 μM in PBS supplemented with 0.05% Tween-20, while MYCbHLHZip or MAX was titrated. The migration of example compound changed at MYC protein concentrations above 1 μM, but was unaffected with MAX up to highest concentration tested (15 μM) (FIG. 2A). […]

The subject of test [2] is MYCN-amplified neuroblastoma cells (SK-N-DZ, Kelly, IMR-32). The test is described as follows: Assay 5A neuroblastoma cell growth (WST-1), MYCN-amplified. It counts as cell-based. The following applies: Homo sapiens, second run. The procedure:
FIG. 6: A-B) Neuroblastoma cell lines with (SK-N-DZ, Kelly and IMR-32) or without (SK-N-F1, SK-N-RA and SK-N-AS) MYCN-amplification were exposed to different concentrations of Example 1, Example 2 and control compound, respectively, for 48 hours. Cell growth and viability was estimated by measuring metabolic activity. C) Growth of TGR-1 (wt), HO15.19 (MYC knockout) and HOmyc3 (MYC reconstituted HO15.19) Rat1 fibroblasts, as measured by the WST-1 assay after treatment with Example 1. Data are shown as mean±standard deviation of 3-5 biological experiments, each with 3 technical repeats.
Assay 5A: Neuroblastoma Cell Growth
Neuroblastoma cell lines with (SK-N-DZ, Kelly and IMR-32) or without (SK-N-F1, SK-N-RA and SK-N-AS) MYCN-amplification were exposed to different concentrations of example compounds for 48 hours. Cell growth and viability was estimated by measuring metabolic activity by incubating cells in triplicates with WST-1 (Roche) in medium at 37° C. and 5% CO2 for 2 hours after which absorbance was measured with an Omega Fluostar (BMG Labtech) in a 96 well plate format.
(Tetrazolium dyes change colour on reduction, which living cells bring about.)

Test [3] has as its target T1, MYCbHLHZip. The test is described as follows: Assay 2B MYC SPR assay. In kind it is binding. The procedure:
FIG. 3: A) SPR assay to determine affinity of Example 1 to MYC. MYC bHLHZip protein was immobilized by aminocoupling on a CM5 sensor chip. Example 1 was injected at various concentrations in a kinetic experiment. The reference surface was subtracted from the analyte surface to generate a sensorgram. […] B) Four MYC equilibrium binding experiments with Example 1 summarized in an equilibrium binding plot. […] Equilibrium binding experiments of MYC with Example 2 and control compound (non-binder) were plotted as well. Assay 2B. MYC SPR Assay To analyze the direct binding of compounds to MYC, the direct binding of compounds to MYC was detected by surface plasmon resonance (SPR) as described above (Biological example 1—Assay 1B). An amino coupling procedure was used to immobilize MYCbHLHZip protein on a CM5 sensor chip (GE Healthcare) resulting in immobilization levels of approximately 800 respectively 1000 RU. The compounds were injected at different concentrations, one at a time, over the surface for 50-80 seconds with a flow rate of 30 μl/min. Afterwards the compounds were allowed to dissociate for 240 seconds in running buffer (137 mM NaCl, 2.7 mM KCl, 10 mM Na2HPO4, 1.8 mM KH2PO4, 0.005% Tween-20, 1% DMSO, pH 7.4). To remove all remaining analyte the surface was regenerated with 2M Urea for 30 seconds and thereafter 1M NaCl, 2.7 mM KCl, 10 mM Na2HPO4, 1.8 mM KH2PO4, 1% DMSO, pH 7.4 for 30 seconds. Sensorgrams were generated by subtraction of the reference (blank immobilized) surface. Binding responses were related to respective compounds' Rmax. Rmax is the maximum response of a compound when it binds with a 1:1 stochiometry to the protein; Rmax=(MW analyte/MW ligand)×immobilized ligand level on the chip (RU) x stoichiometry (1:1). Kinetic experiments were carried out where recombinant MYC bHLHZip was immobilized on the chip and different concentrations of Example 1 were injected as above. […] Example 2-6 were analyzed for their MYC binding properties by equilibrium binding experiments as described for example 1.

The source of these data is patent US11896589B2, “Diazinyl amino acridines and medical uses thereof” (MyCural Therapeutics AB, priority 2018, dated 2024).

Where two headings read alike, the source gives them in different places.

One may read the GI50 as the concentration at which growth is held to half of that of the control. Low readings indicate more potent growth inhibition, high ones less potent growth inhibition. The term Kd denotes a measure of binding affinity in units of concentration.

T1 sequence (P01106 368-449 limits assumed): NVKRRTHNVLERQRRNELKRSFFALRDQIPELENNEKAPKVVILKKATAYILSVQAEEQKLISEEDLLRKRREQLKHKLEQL

On to `CCOc1ccc2nc3cc(/N=N/c4ccc(N)nc4N)ccc3c(N)c2c1` [Example 1, 3-((9-amino-7-ethoxyacridin-3-yl)diazenyl)pyridine-2,6-diamine sulphate hydrate], for which, at MYCbHLHZip [1], the “compound concentration affecting migration of MYC (reverse MST)” value lay in the range of 200 to 400 nM. Also, the concentration for 50% growth inhibition (GI50) in test [2] stood at 2.5 µM. The dissociation constant (Kd) at MYCbHLHZip [3] (1:1 Langmuir model, read-out: KD (average of four kinetic experiments)) stood at 1.6 ± 0.5 µM; on MYCbHLHZip [3] (Langmuir 1:1, constant Rmax 43 RU, read-out: KD (one representative kinetic experiment)), 2.5 µM. In addition, at MYCbHLHZip [3] (equilibrium binding experiments), the “Binding relative to Rmax” value stood at 1.6 Response Units. Also, the kon on MYCbHLHZip [3] (representative kinetic experiment, read-out: association rate ka) stood at 9290 M⁻¹ s⁻¹. For the same molecule, the koff on MYCbHLHZip [3] (representative kinetic experiment, read-out: dissociation rate kd) was found to be 0.0229 s⁻¹.
